How the values were obtained:
Assay type in all cases: physicochemical
[1] = Absorption and fluorescence spectroscopy, DY647 dimers (Examples 2 and 3); details: for λem, position of the emission maximum: excitation 600 nm; for Fluorescence turn-on: ratio of quantum yields in EtOH to that in water (200 nM), DY647 dimers
Description: Absorption spectra were recorded on a Shimadzu UV-2700i spectrophotometer and fluorescence spectra on a Horiba Fluoromax 4 spectrofluorometer. Fluorescence emission spectra were systematically recorded at 600 nm excitation wavelength at 20° C. All fluorescence spectra were corrected for instrumental effects. Fluorescence quantum yields (QY) were measured using DID in MeOH as a reference (QY=33%).^[ref] Turn-ON were calculated as a ratio of QY of compounds in EtOH to QY in water. • Ref I. Texier, et al., J. Biomed. Opt. 2009, 14, 054005.

[2] = Absorption and fluorescence spectroscopy, Cy5.5 dimers (Examples 2 and 3); details: for λem, position of the emission maximum: excitation 630 nm
Description: Absorption spectra were recorded on a Shimadzu UV-2700i spectrophotometer and fluorescence spectra on a Horiba Fluoromax 4 spectrofluorometer. Fluorescence emission spectra were systematically recorded at 630 nm excitation wavelength at 20° C. All fluorescence spectra were corrected for instrumental effects. Fluorescence quantum yields (QY) were measured using Rhodamine 800 in EtOH as a reference (QY=25%).^[ref] Turn-ON were calculated as a ratio of OY of compounds in EtOH to OY in water. • Ref A. Alessi, M. Salvalaggio, G. Ruzzon, J. Lumin. 2013, 134, 385-389. DY647 Dimers
Absorption spectra were recorded on a Shimadzu UV-2700i spectrophotometer and fluorescence spectra on a Horiba Fluoromax 4 spectrofluorometer. Fluorescence emission spectra were systematically recorded at 630 nm excitation wavelength at 20° C. All fluorescence spectra were corrected for instrumental effects. Fluorescence quantum yields (QY) were measured using Rhodamine 800 in EtOH as a reference (QY=25%).^[ref] Turn-ON were calculated as a ratio of QY of compounds in EtOH to QY in water. • Ref A. Alessi, M. Salvalaggio, G. Ruzzon, J. Lumin. 2013, 134, 385-389. DY647 Dimers

[3] = Absorption and fluorescence spectroscopy of mCy5.5-PEG and dCy5.5-PEG in solvents of different polarities (Example 1); details: for λem, position of the emission maximum: excitation 630 nm, 20° C.; for Difference in QY between organic solvents and water (turn-on response): QY in organic solvents vs water; for Fluorescence maxima: in organic solvents
From the text: All fluorescence spectra were corrected for instrumental effects. […] To confirm the formation of the intramolecular dimer, the absorption spectra of two dyes were compared. […] This new band can be assigned to the non-fluorescent intramolecular dimer of the H-aggregate type, which is highly favored in aqueous medium. […] As a consequence, dCy5.5-PEG presented excellent fluorogenic properties, with up to 140-fold higher QY in organic solvents than in water. […] As the absorption spectrum of dCy5.5-PEG in the open form (in MeOH) is the same as that of the cyanine 2, the extinction coefficient of the dimer should be ca double of the monomer. The extinction coefficient for the cyanine 2, was measured to be 222 000 M^−1 cm^−1 in MeOH, which allows estimation of the extinction coefficient for the dimer dCy5.5-PEG: 222 000 M^−1 cm^−1×2=444 000 M^−1 cm^−1. Then, given its strong QY (56% in DMF), dCy5.5-PEG appears to be one of the brightest fluorogenic NIR dyes reported to date.

Q: Which results are given for COCC[N+]1=C(/C=C/C=C/C=C2/N(CCCCCC(=O)NCCCC[C@H](NC(=O)CCCCCN3/C(=C/C=C/C=C/C4=[N+](CCOC)c5ccc(S(=O)(=O)O)cc5C4(C)C)C(C)(C)c4cc(S(=O)(=O)[O-])ccc43)C(=O)NCCOCCOCCNC(=O)CCC(=O)NCCOCCOCCNC(=O)CCC(=O)OC(C)(C)C)c3ccc(S(=O)(=O)[O-])cc3C2(C)C)C(C)(C)c2cc(S(=O)(=O)O)ccc21 [A]?
A: QY, fluorescence quantum yield ([1]; Acetone): 3.4%; λabs, position of the absorption maximum ([1]; Acetone): 661 nm; λem, position of the emission maximum ([1]; Acetone): 684 nm; QY, fluorescence quantum yield ([1]; Acetonitrile): 19.8%; λabs, position of the absorption maximum ([1]; Acetonitrile): 656 nm; λem, position of the emission maximum ([1]; Acetonitrile): 678 nm; QY, fluorescence quantum yield ([1]; EtOH): 31.1%; λabs, position of the absorption maximum ([1]; EtOH): 654 nm; λem, position of the emission maximum ([1]; EtOH): 676 nm; QY, fluorescence quantum yield ([1]; H2O): 4.1%; λabs, position of the absorption maximum ([1]; H2O): 647 nm; λem, position of the emission maximum ([1]; H2O): 671 nm; QY, fluorescence quantum yield ([1]; MeOH): 28.2%; λabs, position of the absorption maximum ([1]; MeOH): 651 nm; λem, position of the emission maximum ([1]; MeOH): 673 nm; Fluorescence turn-on [1]: 7.6

Q: With COCC[N+]1=C(/C=C/C=C/C=C2/N(CCCCCC(=O)NCCOCCOCCNC(=O)CCC(=O)NCCCC[C@H](NC(=O)CCC(=O)NCCOCCOCCNC(=O)CCCCCN3/C(=C/C=C/C=C/C4=[N+](CCOC)c5ccc(S(=O)(=O)O)cc5C4(C)C)C(C)(C)c4cc(S(=O)(=O)[O-])ccc43)C(=O)NCCOCCOCCNC(=O)CCC(=O)NCCOCCOCCNC(=O)CCC(=O)OC(C)(C)C)c3ccc(S(=O)(=O)[O-])cc3C2(C)C)C(C)(C)c2cc(S(=O)(=O)O)ccc21 [B] as the compound, how does the “QY, fluorescence quantum yield” value ([1]; Acetone) read?
A: The value was 0.4%.

Q: What about the “λabs, position of the absorption maximum” value ([1]; Acetone) of the same compound?
A: The value was 660 nm.

Q: And the “λem, position of the emission maximum” value ([1]; Acetone)?
A: Its value is 683 nm.

Q: What about the “QY, fluorescence quantum yield” value ([1]; Acetonitrile) of the same compound?
A: The value was 6.6%.

Q: What about the “λabs, position of the absorption maximum” value ([1]; Acetonitrile) of the same compound?
A: Its value is 658 nm.

Q: What about the “λem, position of the emission maximum” value ([1]; Acetonitrile) of the same compound?
A: Its value is 677 nm.

Q: What about the “QY, fluorescence quantum yield” value ([1]; EtOH) of the same compound?
A: The value was 35.1%.

Q: What about the “λabs, position of the absorption maximum” value ([1]; EtOH) of the same compound?
A: Its value is 653 nm.

Q: And the “λem, position of the emission maximum” value ([1]; EtOH)?
A: The value was 673 nm.

Q: And the “QY, fluorescence quantum yield” value ([1]; H2O)?
A: Its value is 7.6%.

Q: And the “λabs, position of the absorption maximum” value ([1]; H2O)?
A: Its value is 648 nm.

Q: What about the “λem, position of the emission maximum” value ([1]; H2O) of the same compound?
A: Its value is 666 nm.

Q: What about the “QY, fluorescence quantum yield” value ([1]; MeOH) of the same compound?
A: Its value is 33.0%.

Q: What about the “λabs, position of the absorption maximum” value ([1]; MeOH) of the same compound?
A: Its value is 650 nm.

Q: What about the “λem, position of the emission maximum” value ([1]; MeOH) of the same compound?
A: Its value is 673 nm.

Q: And the Fluorescence turn-on [1]?
A: Its Fluorescence turn-on is 4.6.

Q: Which results are given for COCCOCCOCCOCCOCCOCCOCCOCC[N+]1=C(/C=C/C=C/C=C2/N(CCCCCC(=O)NCCOCCOCCNC(=O)CCC(=O)NCCCC[C@H](NC(=O)CCC(=O)NCCOCCOCCNC(=O)CCCCCN3/C(=C/C=C/C=C/C4=[N+](CCOCCOCCOCCOCCOCCOCCOCCOC)c5ccc6ccccc6c5C4(C)C)C(C)(C)c4c3ccc3ccccc43)C(=O)NCCOCCOCCNC(=O)CCC(=O)NCCOCCOCCNC(=O)CCC(=O)OC(C)(C)C)c3ccc4ccccc4c3C2(C)C)C(C)(C)c2c1ccc1ccccc21 [Compound 5]?
A: QY, fluorescence quantum yield ([2]; Acetone): 25.0%; λabs, position of the absorption maximum ([2]; Acetone): 683 nm; λem, position of the emission maximum ([2]; Acetone): 708 nm; QY, fluorescence quantum yield ([2]; Acetonitrile): 22.7%; λabs, position of the absorption maximum ([2]; Acetonitrile): 681 nm; λem, position of the emission maximum ([2]; Acetonitrile): 703 nm; QY, fluorescence quantum yield ([2]; EtOH): 26.5%; λabs, position of the absorption maximum ([2]; EtOH): 685 nm; λem, position of the emission maximum ([2]; EtOH): 708 nm; QY, fluorescence quantum yield ([2]; H2O): 0.4%; λabs, position of the absorption maximum ([2]; H2O): 630 nm; λem, position of the emission maximum ([2]; H2O): 708 nm; QY, fluorescence quantum yield ([2]; MeOH): 21.1%; λabs, position of the absorption maximum ([2]; MeOH): 682 nm; λem, position of the emission maximum ([2]; MeOH): 708 nm; Fluorescence turn-on ([2]; ratio of quantum yields in EtOH to that in water (200 nM), Cy5.5 dimers): 66

Q: With COCCOCCOCCOCCOCCOCCOCCOCC[N+]1=C(/C=C/C=C/C=C2/N(CCCCCC(=O)O)c3ccc4ccccc4c3C2(C)C)C(C)(C)c2c1ccc1ccccc21.[I-] [cyanine 2, 2-((1E,3E,5E)-5-(3-(5-carboxypentyl)-1,1-dimethyl-1,3-dihydro-2H-benzo[e]indol-2-ylidene)penta-1,3-dien-1-yl)-1,1-dimethyl-3-(2,5,8,11,14,17,20,23-octaoxapentacosan-25-yl)-1H-benzo[e]indol-3-ium iodide] as the compound, how does the Extinction coefficient ([3]; in MeOH) read?
A: The Extinction coefficient was 222 000 M^−1 cm^−1.

Q: Which results are given for C#CCNC(=O)CCNC(=O)CCC(=O)NCCOCCOCCNC(=O)CCC(=O)NCCOCCOCCNC(=O)[C@H](CCCCNC(=O)CCC(=O)NCCOCCOCCNC(=O)CCCCCN1/C(=C/C=C/C=C/C2=[N+](CCOCCOCCOCCOCCOCCOCCOCCOC)c3ccc4ccccc4c3C2(C)C)C(C)(C)c2c1ccc1ccccc21)NC(=O)CCC(=O)NCCOCCOCCNC(=O)CCCCCN1/C(=C/C=C/C=C/C2=[N+](CCOCCOCCOCCOCCOCCOCCOCCOC)c3ccc4ccccc4c3C2(C)C)C(C)(C)c2c1ccc1ccccc21.O=C([O-])C(F)(F)F.O=C([O-])C(F)(F)F [dCy5.5-PEG]?
A: QY, fluorescence quantum yield ([3]; 1,4-Dioxane): 28%; λabs, position of the absorption maximum ([3]; 1,4-Dioxane): 689 nm; λem, position of the emission maximum ([3]; 1,4-Dioxane): 718 nm; QY, fluorescence quantum yield ([3]; DMF): 56%; λabs, position of the absorption maximum ([3]; DMF): 685 nm; λem, position of the emission maximum ([3]; DMF): 709 nm; QY, fluorescence quantum yield ([3]; EtOH): 26%; λabs, position of the absorption maximum ([3]; EtOH): 686 nm; λem, position of the emission maximum ([3]; EtOH): 710 nm; QY, fluorescence quantum yield ([3]; MeOH): 26%; λabs, position of the absorption maximum ([3]; MeOH): 682 nm; λem, position of the emission maximum ([3]; MeOH): 705 nm; Difference in QY between organic solvents and water (turn-on response) [3]: up to 140 fold; QY, fluorescence quantum yield ([3]; Water): 0.4%; λabs, position of the absorption maximum ([3]; Water): 629 nm; λem, position of the emission maximum ([3]; Water): 700 nm; Fluorescence maxima [3]: around 710 nm; Extinction coefficient, estimation for the dimer ([3]; open form (in MeOH), double of cyanine 2): 444 000 M^−1 cm^−1

Q: With C#CCNC(=O)CCNC(=O)CCC(=O)NCCOCCOCCNC(=O)CCC(=O)NCCOCCOCCNC(=O)CCC(=O)NCCOCCOCCNC(=O)CCCCCN1/C(=C/C=C/C=C/C2=[N+](CCOCCOCCOCCOCCOCCOCCOCCOC)c3ccc4ccccc4c3C2(C)C)C(C)(C)c2c1ccc1ccccc21.O=C([O-])C(F)(F)F [mCy5.5-PEG] as the compound, how does the “QY, fluorescence quantum yield” value ([3]; 1,4-Dioxane) read?
A: Its value is 59%.

Q: And the “λabs, position of the absorption maximum” value ([3]; 1,4-Dioxane)?
A: Its value is 689 nm.

Q: And the “λem, position of the emission maximum” value ([3]; 1,4-Dioxane)?
A: Its value is 712 nm.

Q: And the “QY, fluorescence quantum yield” value ([3]; DMF)?
A: Its value is 50%.

Q: And the “λabs, position of the absorption maximum” value ([3]; DMF)?
A: The value was 686 nm.

Q: And the “λem, position of the emission maximum” value ([3]; DMF)?
A: The value was 709 nm.

Q: And the “QY, fluorescence quantum yield” value ([3]; EtOH)?
A: Its value is 34%.

Q: What about the “λabs, position of the absorption maximum” value ([3]; EtOH) of the same compound?
A: The value was 686 nm.

Q: And the “λem, position of the emission maximum” value ([3]; EtOH)?
A: Its value is 709 nm.

Q: And the “QY, fluorescence quantum yield” value ([3]; MeOH)?
A: Its value is 32%.

Q: What about the “λabs, position of the absorption maximum” value ([3]; MeOH) of the same compound?
A: The value was 681 nm.

Q: And the “λem, position of the emission maximum” value ([3]; MeOH)?
A: Its value is 705 nm.

Q: What about the “Difference in QY between organic solvents and water (turn-on response)” value [3] of the same compound?
A: The value was less than 2.7 fold.

Q: What about the “QY, fluorescence quantum yield” value ([3]; Water) of the same compound?
A: Its value is 22%.

Q: And the “λabs, position of the absorption maximum” value ([3]; Water)?
A: Its value is 679 nm.

Q: And the “λem, position of the emission maximum” value ([3]; Water)?
A: The value was 700 nm.

Q: What about the Fluorescence maxima [3] of the same compound?
A: Its Fluorescence maxima is “around 710 nm”.

Q: And the Absorption maxima ([3]; in water and in MeOH)?
A: The Absorption maxima was “around 680 nm”.

Source: patent US12643855B2, “Fluorogenic dimer compound, useful as a probe for detection of endogenous receptors” (UNIVERSITE DE STRASBOURG, priority 2020, dated 2026)
